Several values for one entry are separate records, joined by “and”; a condition that tells them apart may be missing. Identical values can stand only once.
Assays:
[1] = target: T1, Mouse pregnane X receptor (mPXR) (Mus musculus, UniProt O54915); assay: mPXR reporter (MRP2) activity in HEK293T cells; type: cell-based
T1 construct: expressed in transfected cells; host or cells: HEK293T
Method: Reverse transfection assays were performed in Caco‐2 cells as previously published with the following modifications (Kublbeck et al, 2015). 3.0 × 10^4 cells per well were transfected using pSG5‐PXR plasmid (300 ng/well), β‐Gal expression plasmid (600 ng/well), and CYP3A4‐luciferase reporter (500 ng/well) (Huang et al, 2007). After 24‐h transfection using Lipofectamine® LTX ([…] of plasmid), cells were exposed to FKK5 for 24 h. Cell lysates were prepared for β‐Gal and luciferase assays as previously published (Huang et al, 2007). The data are expressed as mean ± SD RLU (relative light units from luciferase assay) normalized to β‐Gal activity in the same well. Differences were tested using 2‐way ANOVA with Tukey's multiple comparison test, and P < 0.05 was considered significant (*). Standard transient transfection assays (PXR, CAR) in HEK293T cells were performed as previously published (Huang et al, 2007).

mice = assay: 30 Day toxicity study in mice; type: in vivo, mouse
Method: The LS180 cell line was used to assess cell cytotoxicity using the MTT (3‐(4,5‐dimethylthiazolyl‐2)‐2,5‐diphenyltetrazolium bromide) assay as previously described (Bartonkova et al, 2015, 2016). […] FKK6 was selected as a lead compound for assessment, given that it had the more favorable PXR‐selective ligand activity in cells. […] The mice were gavaged for ten consecutive days and necropsied on day 12 with the collection of blood (serum). […] Similarly, a 30‐day toxicity test was conducted in mice using FKK6 at an oral dose of 200 μM in 0.8% DMSO per day. We chose this dose to stay within the safe DMSO dose administered to mice over 30 days. On day 30, we necropsied the mice and collected blood (serum).

P300 = target: T2, P300 (Homo sapiens, UniProt Q09472); assay: Histone acetyltransferase assay p300 (Reaction Biology); type: biochemical
T2 construct: or p300 (aa 1284-1672); purchased Reaction Biology Corp; host or cells: E. coli
Method: Software Tool and reprinted with permission from KINOME scan®, a division of DiscoveRx […]
The following […] assays (HDAC, SIRT1, PRMT1, PARP1, p300, pCAF) were performed by Reaction Biology Corp. FKK6 was screened at a single concentration of 10 μM in duplicate in two separate experiments. The appropriate controls for the individual assays are published. The overall […]
enzyme activity in the assay is reported as a % activity in DMSO control wells. Control IC50 […]
Briefly, for the Sirtuin (SIRT1) assay, human SIRT1 (GenBank
Accession No. NM012238) full -length N-terminal His-tag protein (MW 83.2 kDa) was purified after expression in E. coli. […]
8), 50 mM NaCl, 0.1 mM EDTA, 1 mM DTT, 1 mM PMSF, and 1% DMSO. […] The radioactivity in mixture is detected on washed filter paper using a scintillation counter. […]
The 2X HDAC substrate is a fluorogenic acetylated peptide from p53 (residues 379 - 38 2 RHKK(Ac)AMC) which is mixed in with the enzyme-compound complex and incubated for 1-2 h at 30 °C. In the development step, a proprietary developer with trichostatin A (or TMP269) is added to stop the reaction and to generate fluorescent color which is read using an EnVision Multilabel Plate Reader (Perkin Elmer) (Ex 360 nm/ Em 460 nm). […]

[2] = oral 200 μM in 0.8% DMSO per day, 30 days

T2 sequence (Q09472 1284-1672): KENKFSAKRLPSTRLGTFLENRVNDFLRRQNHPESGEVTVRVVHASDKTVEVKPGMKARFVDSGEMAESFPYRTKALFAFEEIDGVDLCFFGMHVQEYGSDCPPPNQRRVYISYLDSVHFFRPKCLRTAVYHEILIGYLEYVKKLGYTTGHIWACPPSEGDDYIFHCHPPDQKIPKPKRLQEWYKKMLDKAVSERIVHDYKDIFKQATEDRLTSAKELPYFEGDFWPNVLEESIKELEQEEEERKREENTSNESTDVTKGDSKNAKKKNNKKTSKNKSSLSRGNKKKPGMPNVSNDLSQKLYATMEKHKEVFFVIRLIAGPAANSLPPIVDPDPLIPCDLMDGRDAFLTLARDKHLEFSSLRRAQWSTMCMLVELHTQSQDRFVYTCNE
T1 sequence (O54915 whole entry): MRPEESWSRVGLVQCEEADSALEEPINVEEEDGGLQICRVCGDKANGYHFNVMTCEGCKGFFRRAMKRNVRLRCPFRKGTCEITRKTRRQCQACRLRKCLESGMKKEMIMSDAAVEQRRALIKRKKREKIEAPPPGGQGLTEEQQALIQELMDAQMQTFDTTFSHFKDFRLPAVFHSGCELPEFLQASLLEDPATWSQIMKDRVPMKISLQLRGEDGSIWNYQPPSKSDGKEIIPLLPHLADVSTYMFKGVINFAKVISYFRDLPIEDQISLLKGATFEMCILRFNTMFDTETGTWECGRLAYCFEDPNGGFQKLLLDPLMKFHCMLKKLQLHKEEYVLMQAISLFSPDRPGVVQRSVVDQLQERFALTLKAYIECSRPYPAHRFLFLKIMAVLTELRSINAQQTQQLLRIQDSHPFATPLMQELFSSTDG

**Q.** Which results are given for `C#CCC(O)(c1ccncc1)c1cc2ccccc2n1S(=O)(=O)c1ccccc1` (centres unmarked) [FKK6]?
**A.** mouse PXR activation [1]: did not significantly activate; Histopathology: Liver (mice; 30 day, n=6): Mild perivascular lymphohistiocytic aggregates (n=4); Histopathology: Lung (mice; 30 day, n=6): Mild leukocytes (n=2); Histopathology: Spleen (mice; 30 day, n=6): Mild lymphoid hyperplasia (n=2); serum chemistry profiles (mice; [2]): did not significantly alter serum chemistry profiles; tissue pathology vs vehicle (mice; [2]): did not significantly alter serum chemistry profiles (Fig EV3C and D) or impact tissue pathology; % Enzyme Activity to DMSO controls (P300; 10 μM, substrate Histone H3, replicates data1/2 Exp 1/2): 97.73% and 98.72% and 95.38%; remaining activity at 10 µM (P300; substrate Histone H3, replicates data1/2 Exp 1/2, read-out: % Enzyme Activity to DMSO controls): 100%
